# Results as given in publication PMC4389225, “Triaminopyrimidine is a fast-killing and long-acting antimalarial clinical candidate” (Nature Communications, 2015).
# Several values for one entry are separate records, joined by “and”; a condition that tells them apart may be missing. Identical values can stand only once. Like-named read-outs stand apart in the source and are kept apart here.
# Legend:
# Dd2 [1] = assay: [3H]-hypoxanthine incorporation assay, Dd2; assay type: cell-based, Plasmodium falciparum
# Method: 9 and 12 were tested for their antiplasmodial activity against a panel of Pf strains known to harbour mutations conferring resistance to novel agents under clinical development. Parasite growth inhibition is measured using the [3H]-hypoxanthine incorporation assay. IC50s are established for each strain (n ≥2) and compared to the IC50 of Dd2 (standard pan-resistant
# Dd2 PfATP4 NITD609 = assay: [3H]-hypoxanthine incorporation assay, Dd2 PfATP4 NITD609 resistant; assay type: cell-based; conditions: Plasmodium falciparum
# Method: (§1) Supplementary Table 3: Compound 9 and 12 retain their activity against Pf strains harbouring mutations to novel antimalarial agents in clinical development. Compound 9 and 12 were tested for their antiplasmodial activity against a panel of Pf strains known to harbour mutations conferring resistance to novel agents under clinical development. Parasite growth inhibition is measured using the [3H]-hypoxanthine incorporation assay. IC50s are established for each strain (n ≥2) and compared to the IC50 of Dd2 (standard pan-resistant […]
# hERG = target: T1, hERG (Homo sapiens, UniProt Q12809); assay: electrophysiology-based hERG assay using IonWorks HT (CHO cells); assay type: cell-based; conditions: hERG IC50
# T1 construct: expressed in transfected cells; host or cells: CHO cells
# Method: hERG IC50 was determined in an electrophysiology-based hERG assay using IonWorks HT (CHO cells) as described earlier.
# [2] = target: T2, acetylcholine esterase (AChE) (Homo sapiens, UniProt P22303); assay: AChE enzyme activity assay (CEREP); assay type: biochemical; conditions: read-out: AChE IC50
# T2 construct: purchased CEREP, France (external assay service) 0363
# Method: An in vitro pharmacological profiling panel was specifically designed for the detection of potential high- risk clinical adverse drug reactions. The panel comprised of 26 diverse targets (6 enzymes, 2 transporters, 9 G-protein-coupled receptors (GPCRs), 5 ion channels along with hERG, M2, alpha1A and AchE) and was conduced externally by CEREP, France […]. […] Detailed methodology for in vitro pharmacological profiling assays provided by CEREP can be found at http://www.cerep.fr, with specific reference to the AChE (cat. no. 0363), Muscarinic M1 receptor (cat. no. 0091) and Adrenergic α1A receptor (cat. no. 2338) assays. For enzyme and kinase assays, the results were expressed as a percent inhibition of control-specific activity obtained in the presence of the test compound. The IC50 values (concentration causing a half-maximal inhibition of control-specific activity) and Hill coefficients (nH) were determined by nonlinear regression analysis of the inhibition/concentration–response curves using Hill equation curve fitting as described earlier.
# Dd2-CYTbQi = assay: SYBR green growth assay, Dd2-CYTbQi mutant; assay type: cell-based, P. falciparum
# Method: (§2) To eliminate overlapping mode of action with known targets, cross-resistance testing of representative TAPs against drug-resistant lines with well-characterized mutations in Pf dihydroorotate dehydrogenase, Pf heat-shock protein 90, Pf chloroquine resistance transporter[25] or Pf cytochrome b reduction site[26] was performed. […] Assays were carried out in 384-well format with three technical replicates within an assay day and biological replicates carried out on three different assay days to assign a final EC50.
# (§3) A representative TAP (compound 6) was tested for its activity against a panel of P. falciparum strains known to harbour mutations conferring resistance to antimalarial agents under development. Artesunate and amodiaquine were included as additional control […]
# (§4) Values are the means ± standard deviation derived from three independent assays performed
# Dd2-HSP90 = assay: microbe, parasite or virus in culture; assay type: cell-based, P. falciparum
# Method: as §2, §3, §4
# Dd2-PfCRT = assay: SYBR green growth assay, Dd2-PfCRT mutant; assay type: cell-based, P. falciparum
# Method: as §2, §3, §4
# Dd2 [3] = assay: SYBR green growth assay, Dd2 (parental); assay type: cell-based, P. falciparum; conditions: mean ± SD
# Method: as §2, §3, §4
# Dd2-DHODH = assay: SYBR green growth assay, Dd2-DHODH mutant; assay type: cell-based, P. falciparum
# Method: as §2, §3, §4
# Dd2-6R F2 D8 = assay: SYBR green growth assay, Dd2-6R F2 D8; conditions: Plasmodium falciparum
# Source text: (§7) The drug was then washed off and the parasites were allowed to recover in normal growth media.
# Dd2-6R F4 G7 = assay: SYBR green growth assay, Dd2-6R F4 G7; conditions: Plasmodium falciparum
# Source text: as §7
# Dd2-6R F4 D4 = assay: SYBR green growth assay, Dd2-6R F4 D4; conditions: Plasmodium falciparum
# Source text: as §7
# Dd2-6R F2 C5 = assay: SYBR green growth assay, Dd2-6R F2 C5; conditions: Plasmodium falciparum
# Source text: as §7
# Dd2-6R F2 B5 = assay: SYBR green growth assay, Dd2-6R F2 B5; conditions: for IC50: Plasmodium falciparum, DD2
# Source text: as §7
# Pf SB1 = assay: microbe, parasite or virus in culture; assay type: cell-based; conditions: Plasmodium falciparum
# Source text: (§5) tested in duplicate from two independent experiments using a SYBR-Green based assay2.
# (§6) (1 picture or pasted object on this page, not shown here)
# Pf 7G8 = assay: microbe, parasite or virus in culture; assay type: cell-based; conditions: Plasmodium falciparum
# Source text: as §5, §6
# Pf K1 = assay: microbe, parasite or virus in culture; assay type: cell-based; conditions: Plasmodium falciparum
# Source text: as §5, §6
# Pf DD2 = assay: microbe, parasite or virus in culture; assay type: cell-based; conditions: Plasmodium falciparum
# Source text: as §5, §6
# Dd2 DHODH DSM265 = assay: [3H]-hypoxanthine incorporation assay, Dd2 DHODH DSM265 resistant; assay type: cell-based; conditions: Plasmodium falciparum
# Method: as §1
# Pf NF54 = assay: microbe, parasite or virus in culture; assay type: cell-based; conditions: Plasmodium falciparum
# Source text: as §5, §6
# Pf W2 = assay: microbe, parasite or virus in culture; assay type: cell-based; conditions: Plasmodium falciparum
# Source text: as §5, §6
# Dd2 bc-1 ELQ-300 = assay: [3H]-hypoxanthine incorporation assay, Dd2 bc-1 ELQ-300 resistant; assay type: cell-based, Plasmodium falciparum; conditions: Dd2 bc-1 ELQ-300; read-out: IC50
# Method: as §1
# [4] = Plasmodium falciparum, DD2, Dd2, Supplementary Table 2
# [5] = Plasmodium falciparum, DD2, Dd2 parental, Supplementary Table 13
# T2 sequence (P22303 32-614): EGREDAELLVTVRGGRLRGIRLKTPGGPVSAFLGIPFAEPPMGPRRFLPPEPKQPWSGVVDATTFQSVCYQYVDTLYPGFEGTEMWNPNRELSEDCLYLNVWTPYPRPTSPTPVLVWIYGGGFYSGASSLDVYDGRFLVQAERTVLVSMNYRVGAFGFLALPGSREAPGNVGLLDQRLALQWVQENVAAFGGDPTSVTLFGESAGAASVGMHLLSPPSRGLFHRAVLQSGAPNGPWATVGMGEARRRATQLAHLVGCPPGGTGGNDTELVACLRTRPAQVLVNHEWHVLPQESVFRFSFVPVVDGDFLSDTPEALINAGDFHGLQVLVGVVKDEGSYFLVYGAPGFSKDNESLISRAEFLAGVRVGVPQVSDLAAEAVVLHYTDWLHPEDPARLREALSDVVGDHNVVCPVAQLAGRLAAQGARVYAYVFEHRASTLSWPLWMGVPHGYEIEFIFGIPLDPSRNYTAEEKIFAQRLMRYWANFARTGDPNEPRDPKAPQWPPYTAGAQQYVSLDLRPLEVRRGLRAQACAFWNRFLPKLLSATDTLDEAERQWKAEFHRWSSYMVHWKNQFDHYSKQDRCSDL
# T1 sequence (Q12809 whole entry): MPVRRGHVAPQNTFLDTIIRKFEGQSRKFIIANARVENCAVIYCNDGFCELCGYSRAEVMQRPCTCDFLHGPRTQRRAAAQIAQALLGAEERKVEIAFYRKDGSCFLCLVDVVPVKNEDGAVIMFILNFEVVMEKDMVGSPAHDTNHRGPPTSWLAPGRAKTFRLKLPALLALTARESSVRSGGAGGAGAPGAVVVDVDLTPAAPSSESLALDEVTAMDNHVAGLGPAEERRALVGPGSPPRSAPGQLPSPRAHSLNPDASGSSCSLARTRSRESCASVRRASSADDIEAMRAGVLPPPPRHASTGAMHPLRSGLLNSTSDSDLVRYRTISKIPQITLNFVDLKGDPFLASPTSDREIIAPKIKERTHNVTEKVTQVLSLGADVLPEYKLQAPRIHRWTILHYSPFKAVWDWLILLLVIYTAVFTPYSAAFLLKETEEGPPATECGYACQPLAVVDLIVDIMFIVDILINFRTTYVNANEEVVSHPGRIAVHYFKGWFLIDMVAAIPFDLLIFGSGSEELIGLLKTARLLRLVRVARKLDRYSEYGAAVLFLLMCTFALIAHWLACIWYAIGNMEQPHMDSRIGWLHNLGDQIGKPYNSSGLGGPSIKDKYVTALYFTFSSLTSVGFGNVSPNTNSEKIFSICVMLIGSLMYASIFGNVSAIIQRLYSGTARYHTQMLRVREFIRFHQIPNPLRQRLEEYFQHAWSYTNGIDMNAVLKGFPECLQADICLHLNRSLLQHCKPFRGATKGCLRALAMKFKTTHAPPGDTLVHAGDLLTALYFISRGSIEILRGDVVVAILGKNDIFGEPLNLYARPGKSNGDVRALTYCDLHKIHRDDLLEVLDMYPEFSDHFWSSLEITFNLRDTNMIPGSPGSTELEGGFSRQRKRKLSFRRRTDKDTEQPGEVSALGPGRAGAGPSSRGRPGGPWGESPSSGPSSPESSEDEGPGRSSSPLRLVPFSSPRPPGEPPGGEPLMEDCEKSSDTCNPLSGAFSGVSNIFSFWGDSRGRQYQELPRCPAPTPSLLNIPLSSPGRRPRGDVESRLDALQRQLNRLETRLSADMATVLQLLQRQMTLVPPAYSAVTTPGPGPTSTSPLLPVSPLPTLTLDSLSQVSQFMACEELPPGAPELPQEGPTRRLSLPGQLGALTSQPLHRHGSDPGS
smiles,measurement,setting,value
"C[C@H]1Cc2c([nH]c3cc(Cl)c(F)cc23)[C@@]2(N1)C(=O)Nc1ccc(Cl)cc12 [NITD609, reference compound]",IC50,"Dd2 [1]; Plasmodium falciparum, DD2",0.6 nM
same,IC50,Dd2 PfATP4 NITD609,1.7 nM
"Cc1nc(Nc2ncc(N3CCN[C@H](C)C3)c(Nc3cc(C)n(C)n3)n2)ccc1F [compound 7, (R)-N4-(1,5-dimethyl-1H-pyrazol-3-yl)-N2-(5-fluoro-6-methylpyridin-2-yl)-5-(3-methylpiperazin-1-yl)pyrimidine-2,4-diamine]",IC50,hERG,> 33 µM
same,IC50,[2],66 µM
Cc1nc2c(C#N)cccc2n1-c1ccc(C(=O)NC2CC2)s1 [Genz-669178],IC50,"Dd2-CYTbQi; Dd2-CYTbQi, mean ± SD, read-out: IC50",9.94 ± 0.9 nM
same,IC50,"Dd2-HSP90; Dd2-HSP90, mean ± SD, read-out: IC50",16.2 ± 2 nM
same,IC50,"Dd2-PfCRT; Dd2-PfCRT, mean ± SD, read-out: IC50",5.07 ± 4 nM
same,IC50,"Dd2 [3]; Dd2, Supplementary Table 2, read-out: IC50",5.79 ± 1 nM
same,IC50,"Dd2-DHODH; Dd2-DHODH, mean ± SD, read-out: IC50",76.8 ± 10 nM
CNc1nc(Nc2ccc(OCC(F)(F)F)c(C)n2)ncc1N1CCN[C@H](C)C1 [compound 6],IC50,"Dd2-CYTbQi; Plasmodium falciparum, DD2",25.7 ± 5 nM
same,IC50,"Dd2-HSP90; Plasmodium falciparum, DD2",27.9 ± 7 nM
same,IC50,"Dd2-PfCRT; Plasmodium falciparum, DD2",18.9 ± 1 nM
same,IC50,Dd2 [3]; [4],29.5 ± 3 nM
same,IC50,Dd2 [3]; [5],38.7 ± 1.1 nM
same,IC50,"Dd2-DHODH; Plasmodium falciparum, DD2",23.2 ± 5 nM
same,IC50,Dd2-6R F2 D8,95.7 nM
same,IC50,Dd2-6R F4 G7,112 nM
same,IC50,Dd2-6R F4 D4,98.9 nM
same,IC50,Dd2-6R F2 C5,96.3 nM
same,IC50,Dd2-6R F2 B5,102 nM
same,increase in IC50 compared with the parental Dd2 line,Dd2-6R F2 B5; compound 6-resistant Dd2-6R clones (five clones),3-6 fold and 3 fold
COC1=C2C[C@@H](C)C[C@H](OC)[C@H](O)[C@@H](C)/C=C(\C)[C@H](OC(N)=O)[C@@H](OC)/C=C\C=C(/C)C(=O)NC(=CC1=O)C2=O [Geldanamycin],IC50,"Dd2-CYTbQi; Plasmodium falciparum, DD2",169 ± 40 nM
same,IC50,"Dd2-PfCRT; Plasmodium falciparum, DD2",204 ± 20 nM
same,IC50,Dd2 [3]; [4],176 ± 30 nM
same,IC50,"Dd2-DHODH; Plasmodium falciparum, DD2",257 ± 40 nM
O=C1C(O)=C([C@H]2CC[C@H](c3ccc(Cl)cc3)CC2)C(=O)c2ccccc21 [Atovaquone],IC50,Pf SB1,> 2000 nM
same,IC50,Pf 7G8,2.3 ± 0.7 nM
same,IC50,Pf K1,2.3 ± 0.8 nM
same,IC50,Pf DD2,2 ± 0.02 nM
CCN(CC)CCCC(C)Nc1ccnc2cc(Cl)ccc12 (stereo not shown) [Chloroquine],IC50,Pf SB1,11.8 ± 4.5 nM
CCCCN(CCCC)CC(O)c1cc(Cl)cc2c1-c1ccc(Cl)cc1/C2=C/c1ccc(Cl)cc1 (stereo not shown) [Lumefantrine],IC50,Dd2 [3]; [5],15.6 ± 4.8 nM
same,IC50,Dd2-6R F2 D8,6 ± 1.7 nM
same,IC50,Dd2-6R F4 G7,5.1 nM
same,IC50,Dd2-6R F4 D4,6.4 ± 2.4 nM
same,IC50,Dd2-6R F2 C5,5.7 ± 1 nM
same,IC50,Dd2-6R F2 B5,6.8 ± 2 nM
"Cc1cc(Nc2ccc(S(F)(F)(F)(F)F)cc2)n2nc(C(C)(F)F)nc2n1 [DSM265, reference compound]",IC50,Dd2 DHODH DSM265,48 nM
C[C@H]1[C@H](OC(=O)CCC(=O)O)O[C@@H]2O[C@@]3(C)CC[C@H]4[C@H](C)CC[C@@H]1[C@@]24OO3 [Artesunate],IC50,"Dd2-CYTbQi; Plasmodium falciparum, DD2",1.26 ± 0.4 nM
same,IC50,"Dd2-HSP90; Plasmodium falciparum, DD2",1.29 ± 0.2 nM
same,IC50,"Dd2-PfCRT; Plasmodium falciparum, DD2",1.84 ± 0.3 nM
same,IC50,Dd2 [3]; [4],1.51 ± 0.2 nM
same,IC50,Dd2 [3]; [5],2.6 ± 1.3 nM
same,IC50,"Dd2-DHODH; Plasmodium falciparum, DD2",1.81 ± 0.3 nM
same,IC50,Dd2-6R F2 D8,1.4 ± 0.1 nM
same,IC50,Dd2-6R F4 G7,1.6 nM
same,IC50,Dd2-6R F4 D4,1.6 ± 0.9 nM
same,IC50,Dd2-6R F2 C5,1.2 ± 0.1 nM
same,IC50,Dd2-6R F2 B5,1.6 ± 0.2 nM
OC(c1cc(C(F)(F)F)nc2c(C(F)(F)F)cccc12)C1CCCCN1 (stereo not shown) [Mefloquine],IC50,Dd2 [3]; [5],30.1 ± 7.2 nM
same,IC50,Dd2-6R F2 D8,12 nM
same,IC50,Dd2-6R F4 G7,10.7 nM
same,IC50,Dd2-6R F4 D4,11.7 nM
same,IC50,Dd2-6R F2 C5,12.1 nM
same,IC50,Dd2-6R F2 B5,11.7 ± 2.6 nM
C[C@@H]1CC[C@H]2[C@@H](C)C(=O)O[C@@H]3O[C@@]4(C)CC[C@@H]1[C@]32OO4 [Artemisinin],IC50,Pf NF54,7 ± 4 nM
same,IC50,Pf SB1,16.6 ± 5 nM
same,IC50,Pf 7G8,1.3 ± 0.1 nM
same,IC50,Pf K1,6.5 ± 2 nM
same,IC50,Pf DD2,10.3 ± 2 nM
same,IC50,Pf W2,0.0065 ± 0.001 µM
CCN(CC)Cc1cc(Nc2ccnc3cc(Cl)ccc23)ccc1O [Amodiaquine],IC50,"Dd2-CYTbQi; Plasmodium falciparum, DD2",9.9 ± 3 nM
same,IC50,"Dd2-HSP90; Plasmodium falciparum, DD2",8.96 ± 0.8 nM
same,IC50,"Dd2-PfCRT; Plasmodium falciparum, DD2",8.86 ± 1 nM
same,IC50,Dd2 [3]; [4],9.83 ± 0.4 nM
same,IC50,"Dd2-DHODH; Plasmodium falciparum, DD2",10.7 ± 2 nM
CCc1nc(N)nc(N)c1-c1ccc(Cl)cc1 [Pyrimethamine],IC50,Pf NF54,28.3 ± 11 nM
same,IC50,Pf SB1,10.8 ± 4 nM
same,IC50,Pf 7G8,10000 ± 1260 nM
same,IC50,Pf K1,8560 ± 1980 nM
same,IC50,Pf DD2,13800 ± 8620 nM
same,IC50,Pf W2,15.4 ± 2.83 µM
"COc1cc2[nH]c(C)c(-c3ccc(Oc4ccc(OC(F)(F)F)cc4)cc3)c(=O)c2cc1Cl [ELQ-300, reference compound]",IC50,Dd2 bc-1 ELQ-300,125 nM
same,IC50,"Dd2 [1]; Dd2, [3H]-hypoxanthine, read-out: IC50",20 nM
